{"source": "patent US8586552B2", "about": "“4,6-substituted 2,5-dideoxystreptamine aminoglycoside antibiotics” (SelectX Pharmaceuticals, Inc., priority 2012, dated 2013)", "type_in_all_cases": "cell-based", "key": {"[1]": {"tested_on": "Escherichia coli (Eco, ECWT, ATCC #25922)", "assay": "MIC against Escherichia coli reference strain ECWT", "settings": "ATCC25922", "text": "(§1) For evaluation of efficacy, we assembled panels of representative gram-negative pathogens, including Pseudomonas aeruginosa (Pae, PAWT, ATCC #27853), Klebsiella pneumoniae (Kpn, KPWT, ATCC #700603), Acinetobacter baumannii (Aba, ABWT, ATCC #BAA-747) and Escherichia coli (Eco, ECWT, ATCC #25922). These reference strains are useful indicator organisms to characterize compound activity against bacteria from a pathogenic genus in the absence of multiple resistance mechanisms. Two strains (PAWT and ECWT) are reference strains cited within the Clinical and Laboratory Standards Institute (CLSI) Standards for susceptibility testing by Minimum Inhibitory Concentration (MIC) (SXPS2) and are well suited for quality control. ABWT and ECWT are widely susceptible to aminoglycoside antibiotics, whereas PAWT and KPWT harbor a single aminoglycoside-modifying enzyme (AGME) that targets 4,6-substituted-2-deoxystreptamine AGs."}, "[2]": {"tested_on": "Pseudomonas aeruginosa (Pae, PAWT, ATCC #27853)", "assay": "MIC against Pseudomonas aeruginosa reference strain PAWT", "settings": "ATCC27853; Pseudomonas aeruginosa wild type PAWT", "text": "as §1, with “AGs. […]” for “AGs.”"}, "[3]": {"tested_on": "Acinetobacter baumannii (Aba, ABWT, ATCC #BAA-747)", "assay": "MIC against Acinetobacter baumannii reference strain ABWT", "settings": "ATCCBAA747", "text": "as §1, with “AGs. […]” for “AGs.”"}, "[4]": {"tested_on": "Klebsiella pneumoniae screening panel KPWT, KR1, KR2, KR3", "assay": "Klebsiella pneumoniae screening panel (KPWT, KR1, KR2, KR3), reference AGs", "text": "Klebsiella pneumoniae (Kpn) and Escherichia coli (Eco) are gram-negative (like Pae), enteric pathogens with increasing clinical relevance. Many clinical isolates of Kpn and Eco harbor extended-spectrum beta-lactamases and are no longer sensitive to most beta-lactam antibiotics. We acquired clinical isolates of Klebsiella pneumoniae and Escherichia coli (Micromyx LLC, Kalamazoo, Mich.) and used this panel to test compounds for anti-enteric activity."}, "[5]": {"tested_on": "Pseudomonas aeruginosa PR3 (high-level, efflux-mediated, pan-aminoglycoside resistance)", "assay": "MIC against Pseudomonas aeruginosa clinical isolate PR3", "settings": "Pseudomonas aeruginosa, read-out: MIC PR3", "text": "(§2) Pseudomonas aeruginosa is a prominent nosocomial pathogen. In addition to intrinsic antibiotic resistance to several antibiotics, Pseudomonas has acquired multiple additional mechanisms of resistance. As a result, therapeutic options for the treatment of infections caused by Pseudomonas aeruginosa are limited. We acquired clinical isolates of Pseudomonas aeruginosa (Micromyx LLC, Kalamazoo, Mich.), and used this panel to test compounds for Pseudomonicidal activity. […] For each strain and antibiotic, the mechanism(s) of resistance was inferred from the resistance profile. The presence of specific AGMEs was confirmed by colony PCR."}, "[6]": {"tested_on": "Acinetobacter baumannii indicator strains (ABWT and clinical isolates)", "assay": "Acinetobacter baumannii indicator strain panel, reference AGs", "settings": "read-out: activity (MIC) against 3 of the 4 indicator strains", "text": "Acinetobacter baumannii is another clinically important and very challenging gram negative pathogen. Members of the Acinetobacter genus, including baumannii, have a remarkable ability to upregulate and acquire resistance determinants. Coupled with its ability to survive for prolonged periods in a hospital environment, A. baumannii is an emerging threat for healthcare institutions globally. We acquired clinical isolates of Acinetobacter baumannii and used this panel to test compounds for anti-Acinetobacter activity. We first tested reference AGs against our panel of Aba strains."}, "[7]": {"tested_on": "Klebsiella pneumoniae (Kpn, KPWT, ATCC #700603)", "assay": "MIC against Klebsiella pneumoniae reference strain KPWT", "settings": "ATCC700603; Klebsiella pneumoniae KPWT, Table 2", "text": "as §1, with “These reference strains are useful indicator organisms to characterize compound activity against bacteria from a pathogenic genus in the absence of multiple resistance mechanisms.” left out, “AGs. […]” for “AGs.”"}, "[8]": {"tested_on": "Pseudomonas aeruginosa PR2 (clinical isolate with intermediate aminoglycoside resistance)", "assay": "MIC against Pseudomonas aeruginosa clinical isolate PR2", "settings": "Pseudomonas aeruginosa resistant strain PR2", "text": "as §2"}, "[9]": {"tested_on": "Pseudomonas aeruginosa PR1 (clinical isolate with intermediate aminoglycoside resistance)", "assay": "MIC against Pseudomonas aeruginosa clinical isolate PR1", "settings": "Pseudomonas aeruginosa resistant strain PR1", "text": "as §2"}}, "data": [{"compound": "NCC[C@H](O)C(=O)N[C@@H]1C[C@H](N)[C@@H](O[C@H]2O[C@H](CN)CC[C@H]2N)[C@H](O)[C@H]1O[C@H]1O[C@H](CO)[C@@H](O)[C@H](N)[C@H]1O", "note": "[arbekacin]", "values": [{"measurement": "MIC", "setting": "[1]", "result": 1, "unit": "µg/mL"}, {"measurement": "MIC", "setting": "[2]", "result": 0.5, "unit": "µg/mL"}, {"measurement": "MIC", "setting": "[3]", "result": 0.5, "unit": "µg/mL"}, {"measurement": "potency against Klebsiella pneumoniae test panel", "setting": "[4]", "result": "potency against 3 of 4 strains tested"}, {"measurement": "MIC", "setting": "[5]", "result": 16, "unit": "µg/mL"}, {"measurement": "MIC", "setting": "[6]", "result": "≤ 8", "unit": "µg/mL"}, {"measurement": "MIC", "setting": "[7]", "result": "0.25 to 0.5", "unit": "µg/mL"}, {"measurement": "MIC", "setting": "[8]", "result": "8 to 16", "unit": "µg/mL"}, {"measurement": "MIC", "setting": "[9]", "result": 8, "unit": "µg/mL"}]}]}
